Tests used:
[1] = species: Gallus gallus; assay: In Vitro neurotrophic effect was measured in cultured chick DRG sensory neurons.; type: functional; settings: read-out: ED50 (the source's name)
[2] = biological target: Peptidyl-prolyl cis-trans isomerase FKBP1A (Homo sapiens, UniProt P62942); assay: Compound was tested for its ability to inhibit FK506 binding protein 12 rotamase activity
[3] = tested on: Mus musculus; assay: Compound was evaluated for the recovery of Striatal TH immunostaining in MPTP-treated mice by concurrent treatment after 4 mg/kg sc administration.; type: functional, organism-based; parameters: dose 4 mg/kg; settings: at 4 mg/kg
[4] = tested on: Mus musculus; assay: Compound was evaluated for the recovery of Striatal TH immunostaining in MPTP-treated mice by concurrent treatment after 40 mg/kg sc administration.; type: functional, organism-based; parameters: dose 40 mg/kg; settings: at 40 mg/kg
[5] = species: Rattus norvegicus; assay: Compound was evaluated for the regrowth of Striatal dopamine neurons in 6HODA-lesioned rats at 120 days; type: functional, organism-based
[6] = species: Rattus norvegicus; assay: Compound was evaluated for the regrowth of Striatal dopamine neurons in 6HODA-lesioned rats at 1h.; type: functional, organism-based
[7] = species: Rattus norvegicus; assay: Compound was evaluated for the regrowth of Striatal dopamine neurons in 6HODA-lesioned rats at 28 days; type: functional, organism-based
[8] = species: Rattus norvegicus; assay: Compound was evaluated for the regrowth of Striatal dopamine neurons in 6HODA-lesioned rats at 60 days; type: functional, organism-based
[9] = species: Rattus norvegicus; assay: Compound was evaluated for the regrowth of Striatal dopamine neurons in 6HODA-lesioned rats at 7 days; type: functional, organism-based
[10] = tested on: Rattus norvegicus; assay: Mean axonal area to promote nerve regeneration in rats with lesioned sciatic nerves was measured after 10 mg/kg sc daily administration.; type: functional; settings: route subcutaneous
[11] = tested on: Rattus norvegicus; assay: Mean axonal area to promote nerve regeneration in rats with lesioned sciatic nerves was measured after 1 mg/kg sc daily administration.; type: functional; settings: route subcutaneous
[12] = tested on: Rattus norvegicus; assay: Mean axonal area to promote nerve regeneration in rats with lesioned sciatic nerves was measured after 5 mg/kg sc daily administration.; type: functional; settings: route subcutaneous
[13] = tested on: Rattus norvegicus; assay: Axonal regeneration rate to promote nerve regeneration in rats with lesioned sciatic nerves was measured after 10 mg/kg sc daily administration.; type: functional; settings: route subcutaneous
[14] = tested on: Rattus norvegicus; assay: Axonal regeneration rate to promote nerve regeneration in rats with lesioned sciatic nerves was measured after 1 mg/kg sc daily administration.; type: functional; settings: route subcutaneous
[15] = tested on: Rattus norvegicus; assay: Axonal regeneration rate to promote nerve regeneration in rats with lesioned sciatic nerves was measured after 5 mg/kg sc daily administration.; type: functional; settings: route subcutaneous
[16] = tested on: Rattus norvegicus; assay: Mean axonal area to promote nerve regeneration in rats with lesioned sciatic nerves was measured after 2 mg/kg sc daily administration.; type: functional; settings: route subcutaneous

Chain of Peptidyl-prolyl cis-trans isomerase FKBP1A (P62942 whole entry): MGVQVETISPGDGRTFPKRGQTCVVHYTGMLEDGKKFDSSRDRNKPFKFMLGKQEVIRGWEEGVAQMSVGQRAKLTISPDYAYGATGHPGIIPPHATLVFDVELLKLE

Compound	EC50 [1] [nM]	Ki [2] [nM]	other results
CCC(C)CNC(=O)N1CCCCC1C(=O)OCCCc1cccnc1 (stereo not given)	0.07	70	Recovery [3]: 27.5%
COC(=O)C(=O)N1CCCCC1C(=O)OCCCCC1CCCCC1 (stereo not given)	> 10000	–	–
CCC(C)(C)C(=O)C(=O)N1CCCC1C(=O)OCCCc1cccnc1 (stereo not given)	0.05	7.5	Recovery [4]: 67.5%; Recovery [5]: 19.5%; Recovery [6]: 34.2%; Recovery [7]: 28.1%; Recovery [8]: 17.3%; Recovery [9]: 25.5%
CCC(C)(C)C(=O)C(=O)N1CCCCC1C(=O)OC(CCc1ccccc1)CCc1ccccc1 (stereo not given)	–	–	Recovery [4]: 71.6%
COc1cc(C(=O)C(=O)N2CCCCC2C(=O)OCCCc2c[nH]c3ccccc23)cc(OC)c1OC (stereo not given)	0.06	–	–
COc1cc(C(=O)C(=O)N2CCCCC2C(=O)OC(CCCc2ccccc2)CCc2cccnc2)cc(OC)c1OC (stereo not given)	0.95	–	–
CC(C)(C)C(=O)C(=O)N1CCCCC1C(=O)OCCCC1CCCCC1 (stereo not given)	0.29	32	–
CCC(C)(C)C(=O)C(=O)N1CCCC1C(=O)OCCCC1CCCCC1 (stereo not given)	0.257	194	–
CC(C)(C)C(=O)C(=O)N1CCCCC1C(=O)OC1C2CC3CC(C2)CC1C3 (stereo not given)	0.11	78	–
CCC(C)(C)C(=O)C(=O)N1CCCCC1C(=O)O[C@H](CCc1ccccc1)c1ccccc1 (stereo not given in full)	0.3	–	–
O=C(C(=O)N1CCCCC1C(=O)OCCCc1cccnc1)c1ccccc1 (stereo not given)	0.8	725	–
O=C(OCCCCc1ccccc1)C1CCCCN1S(=O)(=O)Cc1ccccc1 (stereo not given)	0.03	–	Recovery [3]: 38%
COC(=O)C(=O)N1CCCCC1C(=O)OCCCC1CCCCC1 (stereo not given)	> 10000	–	–
O=C(C(=O)N1CCCC1C(=O)OCCCc1cccnc1)C1CCCCC1 (stereo not given)	2	–	–
CCC(C)(C)C(=O)C(=O)N1CCCCC1C(=O)OCCCc1cccnc1 (stereo not given)	8.5	130	–
O=C(OCCCCc1ccccc1)C1CCCCN1S(=O)(=O)c1ccccc1 (stereo not given)	–	–	Recovery [3]: 29.2%
CCC(C)(C)C(=O)C(=O)N1CCCCC1C(=O)OCCCc1cc(OC)ccc1OC (stereo not given)	2.5	12	–
CCC(C)(C)C(=O)C(=O)N1CCCC1C(=O)OCCc1cc(OC)c(OC)c(OC)c1 (stereo not given)	–	120	–
O=C(C(=O)N1CCCCC1C(=O)OC(CCCc1ccccc1)CCCc1ccccn1)c1ccccc1 (stereo not given)	0.063	50	–
CCC(C)(C)C(=O)C(=O)N1CCCCC1C(=O)OCCCCc1ccc(OC)cc1 (stereo not given)	–	60	–

Compound	EC50 [1] [nM]	Ki [2] [nM]	other results
CC[C@@H]1/C=C(/C)[C@@H](O)[C@@H](C)C[C@H](OC)[C@H]2O[C@@](O)(C(=O)C(=O)N3CCCC[C@H]3C(=O)O[C@H](/C(C)=C/[C@@H]3CC[C@@H](O)[C@H](OC)C3)[C@H](C)[C@@H](O)CC1=O)[C@H](C)C[C@@H]2OC	5	0.7	–
CCC(C)(C)NC(=O)N1CCCC1C(=O)OCCCc1cccnc1 (stereo not given)	1	742	–
O=C(OC(CCCc1ccccc1)Cc1ccccc1)C1CCCCN1S(=O)(=O)Cc1ccccc1 (stereo not given)	0.133	107	–
Cc1ccc(S(=O)(=O)N2CCCCC2C(=O)OCCCCc2ccccc2)cc1 (stereo not given)	–	–	Recovery [3]: 44.2%
O=C(C(=O)N1CCCCC1C(=O)OCCCC1CCCCC1)C1CCCCC1 (stereo not given)	1	760	–
CC(C)(C)C(=O)C(=O)N1CCCC1C(=O)OCCCc1cccnc1 (stereo not given)	–	3	–
CCC(C)(C)C(=O)C(=O)N1CCCC1C(=O)OCCCc1ccccc1 (stereo not given)	–	42	–
COc1cc(C(=O)C(=O)N2CCCCC2C(=O)OC(CCCc2ccccc2)CCCc2ccccn2)cc(OC)c1OC (stereo not given)	0.05	–	–
CO[C@H]1C[C@@H]2CC[C@@H](C)[C@@](O)(O2)C(=O)C(=O)N2CCCC[C@H]2C(=O)O[C@H]([C@H](C)C[C@@H]2CC[C@@H](O)[C@H](OC)C2)CC(=O)[C@H](C)/C=C(\C)[C@@H](O)[C@@H](OC)C(=O)[C@H](C)C[C@H](C)/C=C/C=C/C=C/1C [SIROLIMUS]	0.5	–	–
CCC(C)(C)C(=O)C(=O)N1CCCCC1C(=O)OCCCc1ccccc1 (stereo not given)	–	250	–
Cc1ccc(S(=O)(=O)N2CCCCC2C(=O)OC(CCCc2ccccc2)CCCc2ccccc2)cc1 (stereo not given)	1	332	–
CC(C)(C)C(=O)C(=O)N1CCCCC1C(=O)OCCCc1ccccc1 (stereo not given)	–	–	Recovery [4]: 32.4%
CCC(C)(C)C(=O)C(=O)N1CCCC1C(=O)OCCCc1ccc2c(c1)OCO2 (stereo not given)	10	170	–
COc1ccc(CCCCOC(=O)C2CCCCN2C(=O)C(=O)C(C)(C)C)cc1 (stereo not given)	–	24	Recovery [4]: 58.9%
CC(C)(C)C(=O)C(=O)N1CCCC1C(=O)OCCCc1ccccc1 (stereo not given)	–	95	–
O=C(C(=O)N1CCCCC1C(=O)OCCCc1ccccc1)C1CCCCC1 (stereo not given)	0.82	210	–
CCC(C)(C)C(=O)C(=O)N1CCCCC1C(=O)OCCC(c1ccccc1)c1ccccc1 (stereo not given)	–	8.3	–
CCC(C)(C)C(=O)C(=O)N1CCCCC1C(=O)OCCCC1CCCCC1 (stereo not given)	1	–	–
O=C(OCCCc1cccnc1)C1CCCN1C(=S)NC1C2CC3CC(C2)CC1C3 (stereo not given)	0.14	116	Recovery [3]: 52.3%
CCC(C)(C)C(=O)C(=O)N1CCCC1C(=O)OC/C=C/c1cc(OC)ccc1OC (stereo not given)	0.8	450	–

Compound	EC50 [1] [nM]	Ki [2] [nM]	other results
COC(=O)C1CCCCN1C(=O)C(=O)c1ccccc1 (stereo not given)	> 10000	> 10000	–
C=CC[C@@H]1/C=C(\C)CC(C)C[C@H](OC)[C@H]2O[C@@](O)(C(=O)C(=O)N3CCCC[C@H]3C(=O)O[C@H](/C(C)=C/[C@@H]3CC[C@@H](O)[C@H](OC)C3)[C@H](C)[C@@H](O)CC1=O)[C@H](C)C[C@@H]2OC (single isomer, unassigned) [TACROLIMUS ANHYDROUS]	0.5	–	Mean axonal area [10]: 100; Mean axonal area [11]: 67; Mean axonal area [12]: 120; Axonal regeneration rate [13]: 29; Axonal regeneration rate [14]: 16; Axonal regeneration rate [15]: 34; Mean axonal area [16]: 83
O=C(OCCCc1cccnc1)C1CCCN1C(=O)NC1CCCCC1 (stereo not given)	–	1480	Recovery [3]: 59.8%
CCC(OC(=O)C1CCCCN1C(=O)C(=O)C(C)(C)CC)C(CCc1ccccc1)c1ccc(OC)cc1 (stereo not given)	0.17	15	–
CCC(C)(C)C(=O)C(=O)N1CCCC1C(=O)OCCCc1ccccn1 (stereo not given)	0.075	195	–
CCOC(=O)C1CCCCN1C(=O)C(=O)C(C)(C)CC (stereo not given)	–	1300	–
O=C(OCCCc1cccnc1)C1CCCN1S(=O)(=O)Cc1ccccc1 (stereo not given)	–	72	Recovery [3]: 44.3%
CCC(C)(C)C(=O)C(=O)N1CCCC1C(=O)OCCCc1cc(OC)ccc1OC (stereo not given)	2	250	–
C/C=C/C[C@@H](C)[C@@H](O)[C@H]1C(=O)N[C@@H](CC)C(=O)N(C)CC(=O)N(C)[C@@H](CC(C)C)C(=O)N[C@@H](C(C)C)C(=O)N(C)[C@@H](C)C(=O)N[C@@H](C)C(=O)N[C@H](C)C(=O)N(C)[C@@H](CC(C)C)C(=O)N(C)[C@@H](CC(C)C)C(=O)N(C)[C@@H](C(C)C)C(=O)N1C	–	50	–
CCOC(=O)C1CCCCN1C(=O)C(=O)OC (stereo not given)	–	> 10000	–
COc1ccc(CCCCOC(=O)C2CCCCN2C(=O)C(=O)c2cc(OC)c(OC)c(OC)c2)cc1 (stereo not given)	0.03	–	–
COC(=O)C(=O)N1CCCCC1C(=O)OCCCC1CCCC1 (stereo not given)	> 10000	–	–
COc1ccc(CCCCOC(=O)C2CCCCN2C(=O)C(=O)C2CCCCC2)cc1 (stereo not given)	6	103	–
O=C(C(=O)N1CCCCC1C(=O)OC(CCCc1ccccc1)CCCc1ccccc1)c1ccccc1 (stereo not given)	–	3	–
CCOC(=O)C1CCCCN1C(=O)C(C)=O (stereo not given)	> 10000	> 10000	–
O=C(OCCCc1cccnc1)C1CCCN1C(=S)NC1CCCCC1 (stereo not given)	0.3	131	Recovery [3]: 56.1%
CCC(C)(C)C(=O)C(=O)N1CCCCC1C(=O)OCCCc1cc(OC)c(OC)c(OC)c1 (stereo not given)	–	25	–
CC(C)(C)C(=O)C(=O)N1CCCCC1C(=O)OC(CCCc1ccccc1)CCCc1ccccc1 (stereo not given)	–	–	Recovery [4]: 43.8%
COC(=O)C(=O)N1CCCCC1C(=O)OCc1ccccc1 (stereo not given)	> 10000	8000	–
